Assay results taken from PubChem BioAssay AID328 (DTP/NCI, 2004).
Values joined by “and” are separate entries in the source; they are usually repeats but may differ in a detail not shown here. Equal values may be shown once. Inconclusive results and toxic doses are left out.

Test system: BDF1 mice, P388 leukemia ip, median survival T/C
Assay: NCI In Vivo Anticancer Drug Screen. Data for tumor model P388 Leukemia (intraperitoneal) in B6D2F1 (BDF1) mice
Conditions: endpoint: median survival time, higher = longer survival
In short: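 Steps: implant the tumour, treat one group with compound and another with vehicle, record survival, then divide treated by control.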

[1] = dose: 50.0 mg/kg/injection, schedule: Q01DX009 (ip), vehicle: Klucel (hydroxypropylcellulose) (HPC)
[2] = dose: 50.0 mg/kg/injection, schedule: Q04DX003 (ip), vehicle: Klucel (hydroxypropylcellulose) (HPC)
[3] = dose: 100.0 mg/kg/injection, schedule: Q01DX009 (ip), vehicle: Klucel (hydroxypropylcellulose) (HPC)
[4] = dose: 100.0 mg/kg/injection, schedule: Q04DX003 (ip), vehicle: Klucel (hydroxypropylcellulose) (HPC)
[5] = dose: 200.0 mg/kg/injection, schedule: Q01DX009 (ip), vehicle: Klucel (hydroxypropylcellulose) (HPC)
[6] = dose: 200.0 mg/kg/injection, schedule: Q04DX003 (ip), vehicle: Klucel (hydroxypropylcellulose) (HPC)
[7] = dose: 100.0 mg/kg/injection, schedule: Q01DX009 (ip), vehicle: saline with Tween-80
[8] = dose: 25.0 mg/kg/injection, schedule: Q04DX003 (ip), vehicle: saline
[9] = dose: 200.0 mg/kg/injection, schedule: Q01DX009 (ip), vehicle: saline with Tween-80
[10] = dose: 400.0 mg/kg/injection, schedule: Q01DX009 (ip), vehicle: saline with Tween-80
[11] = dose: 12.5 mg/kg/injection, schedule: Q01DX009 (ip), vehicle: saline
[12] = dose: 25.0 mg/kg/injection, schedule: Q01DX009 (ip), vehicle: saline
[13] = dose: 50.0 mg/kg/injection, schedule: Q01DX009 (ip), vehicle: saline
[14] = dose: 50.0 mg/kg/injection, schedule: Q04DX003 (ip), vehicle: saline
[15] = dose: 100.0 mg/kg/injection, schedule: Q04DX003 (ip), vehicle: saline
[16] = dose: 200.0 mg/kg/injection, schedule: Q04DX003 (ip), vehicle: saline
[17] = dose: 400.0 mg/kg/injection, schedule: Q04DX003 (ip), vehicle: saline
[18] = dose: 100.0 mg/kg/injection, schedule: Q04DX003 (ip), vehicle: saline with Tween-80
[19] = dose: 200.0 mg/kg/injection, schedule: Q04DX003 (ip), vehicle: saline with Tween-80
[20] = dose: 200.0 mg/kg/injection, schedule: Q01DX001 (ip), vehicle: Klucel (hydroxypropylcellulose) (HPC)
[21] = dose: 400.0 mg/kg/injection, schedule: Q01DX001 (ip), vehicle: Klucel (hydroxypropylcellulose) (HPC)
[22] = dose: 25.0 mg/kg/injection, schedule: Q01DX009 (ip), vehicle: saline with Tween-80

O=C(Nc1ccc(Cl)cc1)c1ccccc1
T/C [1]: 122 % of control
T/C [2]: 95 % of control
T/C [3]: 95 % of control
T/C [4]: 91 % of control
T/C [5]: 90 % of control
T/C [6]: 100 % of control

CCOC(=O)C1Cc2ccccc2OC1=O (stereo not given)
T/C (dose: 50.0 mg/kg/injection, schedule: Q01DX005 (ip), vehicle: saline with Tween-80): 105 % of control
T/C (dose: 100.0 mg/kg/injection, schedule: Q01DX005 (ip), vehicle: saline with Tween-80): 100 % of control
T/C (dose: 200.0 mg/kg/injection, schedule: Q01DX005 (ip), vehicle: saline with Tween-80): 91 % of control

CC(=O)Oc1cccc2c1C(=O)c1c(OC(C)=O)cccc1C2=O
T/C (dose: 3.13 mg/kg/injection, schedule: Q04DX003 (ip), vehicle: Klucel (hydroxypropylcellulose) (HPC)): 101 % of control
T/C (dose: 12.5 mg/kg/injection, schedule: Q04DX003 (ip), vehicle: Klucel (hydroxypropylcellulose) (HPC)): 99 % of control
T/C (dose: 25.0 mg/kg/injection, schedule: Q04DX003 (ip), vehicle: Klucel (hydroxypropylcellulose) (HPC)): 117 % of control
T/C [2]: 108 % of control

N#Cc1cnc(=S)n(-c2cc(C(F)(F)F)cc(C(F)(F)F)c2)c1N
T/C (dose: 50.0 mg/kg/injection, schedule: Q01DX009 (ip), vehicle: saline with Tween-80): 101 % of control
T/C [7]: 115 % of control

Oc1cccc2cccnc12.[Cu+].[O-]c1cccc2cccnc12
T/C (dose: 1.87 mg/kg/injection, schedule: Q01DX009 (ip), vehicle: saline): 104 % of control
T/C (dose: 2.75 mg/kg/injection, schedule: Q04DX003 (ip), vehicle: saline): 90 % of control
T/C (dose: 3.75 mg/kg/injection, schedule: Q01DX009 (ip), vehicle: saline): 100 % of control
T/C (dose: 5.5 mg/kg/injection, schedule: Q04DX003 (ip), vehicle: saline): 100 % of control
T/C (dose: 11.0 mg/kg/injection, schedule: Q04DX003 (ip), vehicle: saline): 113 % of control
T/C (dose: 16.0 mg/kg/injection, schedule: Q04DX003 (ip), vehicle: saline): 100 % of control
T/C [8]: 100 % of control

C[N+](C)(C)CCOC(=O)c1ccccc1
T/C [7]: 109 % of control
T/C [9]: 117 % of control
T/C [10]: 102 % of control

Cc1ncc(CO)c(/C=N/OCc2ccc(OCc3ccccc3)cc2)c1O
T/C (dose: 50.0 mg/kg/injection, schedule: Q04DX003 (ip), vehicle: saline sonified): 100 % of control
T/C (dose: 100.0 mg/kg/injection, schedule: Q04DX003 (ip), vehicle: saline sonified): 100 % of control
T/C (dose: 200.0 mg/kg/injection, schedule: Q04DX003 (ip), vehicle: saline sonified): 95 % of control

CC(=O)Oc1ccc(OC(C)=O)c2c1CC1(C)OC1(C)C2 (stereo not given)
T/C (dose: 1.56 mg/kg/injection, schedule: Q01DX009 (ip), vehicle: saline): 96 % of control
T/C (dose: 3.12 mg/kg/injection, schedule: Q01DX009 (ip), vehicle: saline): 96 % of control
T/C (dose: 6.25 mg/kg/injection, schedule: Q01DX009 (ip), vehicle: saline): 99 % of control
T/C [11]: 88 % of control
T/C [12]: 88 % of control
T/C [8]: 96 % of control
T/C [13]: 97 % of control and 109 % of control
T/C [14]: 107 % of control
T/C (dose: 100.0 mg/kg/injection, schedule: Q01DX009 (ip), vehicle: saline): 96 % of control
T/C [15]: 87 % of control
T/C (dose: 200.0 mg/kg/injection, schedule: Q01DX009 (ip), vehicle: saline): 94 % of control
T/C [16]: 103 % of control
T/C (dose: 400.0 mg/kg/injection, schedule: Q01DX009 (ip), vehicle: saline): 90 % of control
T/C [17]: 100 % of control

CC(=O)NC(CCC(=O)C=[N+]=N)C(=O)O (stereo not given)
T/C (dose: 0.05 mg/kg/injection, schedule: Q01DX010 (ip), vehicle: other): 115 % of control
T/C (dose: 0.1 mg/kg/injection, schedule: Q01DX010 (ip), vehicle: other): 110 % of control
T/C (dose: 0.2 mg/kg/injection, schedule: Q01DX010 (ip), vehicle: other): 120 % of control
T/C (dose: 0.6 mg/kg/injection, schedule: Q01DX010 (ip), vehicle: other): 154 % of control
T/C (dose: 0.8 mg/kg/injection, schedule: Q01DX010 (ip), vehicle: other): 168 % of control
T/C (dose: 1.0 mg/kg/injection, schedule: Q01DX010 (ip), vehicle: other): 100 % of control

COC(=O)CCSCCC(=O)OC
T/C [7]: 100 % of control
T/C [18]: 110 % of control
T/C [9]: 100 % of control
T/C [19]: 100 % of control
T/C [10]: 100 % of control
T/C (dose: 400.0 mg/kg/injection, schedule: Q04DX003 (ip), vehicle: saline with Tween-80): 105 % of control

CCN(CC)c1ccc([N+](=O)[O-])c2no[n+]([O-])c12
T/C (dose: 35.0 mg/kg/injection, schedule: Q01DX009 (ip), vehicle: saline with Tween-80): 91 % of control
T/C (dose: 70.0 mg/kg/injection, schedule: Q01DX009 (ip), vehicle: saline with Tween-80): 94 % of control

O=C1OCC2CC3c4ccccc4C12c1ccccc13 (stereo not given)
T/C [20]: 105 % of control
T/C [21]: 95 % of control

COC1OC(n2cnc3ncn(Cc4ccccc4)c3c2=N)C2OC(C)(C)OC12 (stereo not given)
T/C (dose: 100.0 mg/kg/injection, schedule: Q01DX001 (ip), vehicle: saline): 110 % of control
T/C (dose: 200.0 mg/kg/injection, schedule: Q01DX001 (ip), vehicle: saline): 95 % of control

O=C(O)CSC(=S)c1ccccc1
T/C [22]: 118 % of control
T/C [7]: 121 % of control

Cc1cc(Cl)n[nH]1
T/C [22]: 98 % of control

COCCc1ccncc1
T/C [7]: 101 % of control
T/C [9]: 97 % of control

O=c1oc(-c2ccccc2)nc2c(Cl)ccc(Cl)c12
T/C [15]: 109 % of control
T/C [16]: 104 % of control
T/C [17]: 104 % of control

O=C1CCCc2ccccc2N1
T/C (dose: 25.0 mg/kg/injection, schedule: Q01DX009 (ip), vehicle: Klucel (hydroxypropylcellulose) (HPC)): 100 % of control
T/C [1]: 95 % of control
T/C [3]: 91 % of control
T/C [4]: 95 % of control
T/C [5]: 91 % of control
T/C [6]: 100 % of control
T/C (dose: 400.0 mg/kg/injection, schedule: Q01DX009 (ip), vehicle: Klucel (hydroxypropylcellulose) (HPC)): 91 % of control
T/C (dose: 400.0 mg/kg/injection, schedule: Q04DX003 (ip), vehicle: Klucel (hydroxypropylcellulose) (HPC)): 100 % of control

CN1C2CCC1CN(Cc1ccccc1)C2
T/C [11]: 95 % of control
T/C (dose: 12.5 mg/kg/injection, schedule: Q04DX003 (ip), vehicle: saline): 88 % of control
T/C [12]: 95 % of control
T/C [8]: 100 % of control
T/C [13]: 91 % of control
T/C [14]: 100 % of control

O=C1c2ccccc2C(=O)N1CN1C(=O)c2ccccc2C1=O
T/C (dose: 50.0 mg/kg/injection, schedule: Q04DX003 (ip), vehicle: saline with Tween-80): 95 % of control
T/C [18]: 90 % of control
T/C [19]: 86 % of control

Cc1ccnc(NC(=O)Nc2ccccc2F)c1
T/C (dose: 100.0 mg/kg/injection, schedule: Q01DX001 (ip), vehicle: Klucel (hydroxypropylcellulose) (HPC)): 90 % of control
T/C [20]: 95 % of control
T/C [21]: 105 % of control

CCN(CC)Cc1c(O)ccc2c3c(c(=O)oc12)CCCC3
T/C (dose: 1.0 mg/kg/injection, schedule: Q01DX005 (ip), vehicle: saline): 112 % of control
T/C (dose: 2.0 mg/kg/injection, schedule: Q01DX005 (ip), vehicle: saline): 106 % of control
T/C (dose: 4.0 mg/kg/injection, schedule: Q01DX005 (ip), vehicle: saline): 112 % of control
T/C (dose: 8.0 mg/kg/injection, schedule: Q01DX005 (ip), vehicle: saline): 104 % of control
T/C (dose: 16.0 mg/kg/injection, schedule: Q01DX005 (ip), vehicle: saline): 98 % of control
T/C (dose: 32.0 mg/kg/injection, schedule: Q01DX005 (ip), vehicle: saline): 102 % of control
T/C (dose: 64.0 mg/kg/injection, schedule: Q01DX005 (ip), vehicle: saline): 96 % of control
